Laboratory results: patent US20240058450A1, “BCL-XL Inhibitory Compounds Having Low Cell Permeability and Antibody Drug Conjugates Including the Same” (AbbVie Inc., priority 2014, published 2024)
Like-named read-outs stand apart in the source and are kept apart here.

Tests used:
[1] = target: Bcl-xL (Homo sapiens, UniProt Q07817); assay: Time Resolved-Fluorescence Resonance Energy Transfer (TR-FRET) binding assay, competition with probe F-Bak
Description: Tb-anti-GST antibody was purchased from Invitrogen (Catalog No. PV4216).
For the assay, test compounds were serially diluted in DMSO starting at 50 μM (2× starting concentration; 10% DMSO) and 10 μL transferred into a 384-well plate. 10 μL of a protein/probe/antibody mix was then added to each well at final concentrations listed below:
The samples were then mixed on a shaker for 1 minute and incubated for an additional 2 hours at room temperature. For each assay plate, a probe/antibody and protein/antibody/probe mixture were included as a negative and a positive control, respectively. Fluorescence was measured on the Envision (Perkin Elmer) using a 340/35 nm excitation filter and 520/525 (F-Bak) and 495/510 nm (Tb-labeled anti-his antibody) emission filters. Dissociation constants (Ki) were determined using Wang's equation (Wang, 1995, FEBS Lett. 360:111-114). The TR-FRET assay can be performed in the presence of varying concentrations of human serum (HS) or fetal bovine serum (FBS). Compounds were tested both without HS and in the presence of 1% HS.

[2] = test system: Molt-4 human acute lymphoblastic leukemia cells; assay: Molt-4 cell viability assay (CellTiter-Glo, 48 hours, 10% HS); type: cell-based; details: Homo sapiens, MOLT-4, 48 h, non-permeabilized cells
Description: The ability of Bcl-xL inhibitors that are able to traverse cell membranes to inhibit Bcl-xL can be determined in cell-based killing assays using a variety of cell lines and mouse tumor models. For example, their activity on cell viability can be assessed on a panel of cultured tumorigenic and non-tumorigenic cell lines, as well as primary mouse or human cell populations.
In one exemplary set of conditions, Molt-4 (ATCC, Manassas, VA) human acute lymphoblastic leukemia cells were plated 12,500 cells per well in 384-well tissue culture plates (Corning, Corning, NY) in a total volume of 25 μL tissue culture medium supplemented with 10% human serum (Sigma-Aldrich, St. Louis, MO) and treated with a 3-fold serial dilution of the compounds of interest from 10 μM to 0.0005 μM. Each concentration was tested in duplicate at least 3 separate times. The number of viable cells following 48 hours of compound treatment was determined using the CellTiter-Glo®, Luminescent Cell Viability Assay according to the manufacturer's recommendations (Promega Corp., Madison, WI). Compounds were tested in the presence of 10% HS.

[3] = in the presence of 1% HS, read-out: Bcl-xL Binding Ki (nM, 1% HS)
[4] = without HS, read-out: Bcl-xL Binding Ki

Sequence of Bcl-xL (Q07817 whole entry): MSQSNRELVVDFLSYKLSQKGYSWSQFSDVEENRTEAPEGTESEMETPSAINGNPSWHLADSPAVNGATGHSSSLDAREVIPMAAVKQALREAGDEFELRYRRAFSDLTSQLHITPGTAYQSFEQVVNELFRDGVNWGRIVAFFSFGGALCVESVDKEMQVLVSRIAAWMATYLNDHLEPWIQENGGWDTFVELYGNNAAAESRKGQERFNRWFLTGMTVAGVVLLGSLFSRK

SMILES	Ki [1, 3]	Ki [1, 4]	EC50 [2]
Cc1c(-c2ccc(N3CCc4cccc(C(=O)Nc5nc6ccccc6s5)c4C3)nc2C(=O)O)cnn1CC12CC3(C)CC(C)(C1)CC(NC(=O)CNCCS(=O)(=O)O)(C3)C2 [Example 1.89, 6-{8-[(1,3-benzothiazol-2-yl)carbamoyl]-3,4-dihydroisoquinolin-2 (1H)-yl)-3-{1-[(3,5-dimethyl-7-{2-[(2-sulfoethyl)amino]acetamido}tricyclo[3.3.1.1^3,7]decan-1-yl)methyl]-5-methyl-1H-pyrazol-4-yl}pyridine-2-carboxylic acid]	0.97 nM	< 0.01 nM	–
Cc1c(-c2ccc(N3CCc4cccc(C(=O)Nc5nc6ccccc6s5)c4C3)nc2C(=O)O)cnn1CC12CC3(C)CC(C)(C1)CC(OCCNC[C@H](O)[C@@H](O)CO)(C3)C2 [Example 1.81, 6-[8-(1,3-benzothiazol-2-ylcarbamoyl)-3,4-dihydroisoquinolin-2 (1H)-yl]-3-(1-{[3,5-dimethyl-7-(2-{[(2S,3S)-2,3,4-trihydroxybutyl]amino}ethoxy)tricyclo[3.3.1.1^3,7]dec-1-yl]methyl}-5-methyl-1H-pyrazol-4-yl}pyridine-2-carboxylic acid]	0.37 nM	0.011 nM	252 nM
CNCCOC12CC3(C)CC(C)(CC(Cn4ncc(-c5ccc(N6CCc7c(OCCN)ccc(C(=O)Nc8nc9ccccc9s8)c7C6)nc5C(=O)O)c4C)(C3)C1)C2 [Example 1.34, 6-[5-(2-aminoethoxy)-8-(1,3-benzothiazol-2-ylcarbamoyl)-3,4-dihydroisoquinolin-2 (1H)-yl]-3-[1-({3,5-dimethyl-7-[2-(methylamino)ethoxy]tricyclo[3.3.1.1^3,7]dec-1-yl}methyl)-5-methyl-1H-pyrazol-4-yl]pyridine-2-carboxylic acid]	0.031 nM	–	87.7 nM
CO[C@H]1O[C@@H](Cn2cc(CCCNCCOC34CC5(C)CC(C)(CC(Cn6ncc(-c7ccc(N8CCc9cccc(C(=O)Nc%10nc%11ccccc%11s%10)c9C8)nc7C(=O)O)c6C)(C5)C3)C4)nn2)[C@H](O)[C@@H](O)[C@@H]1O [Example 1.67, methyl 6-[4-(3-{[2-({3-[(4-{6-[8-(1,3-benzothiazol-2-ylcarbamoyl)-3,4-dihydroisoquinolin-2 (1H)-yl]-2-carboxypyridin-3-yl}-5-methyl-1H-pyrazol-1-yl)methyl]-5,7-dimethyltricyclo[3.3.1.1^3,7]dec-1-yl}oxy)ethyl]amino}propyl)-1H-1,2,3-triazol-1-yl]-6-deoxy-beta-L-glucopyranoside]	0.51 nM	< 0.01 nM	–
CNCCOC12CC3(C)CC(C)(CC(Cn4ncc(-c5ccc(N6CCc7c(OCCCS(=O)(=O)O)ccc(C(=O)Nc8nc9ccccc9s8)c7C6)nc5C(=O)O)c4C)(C3)C1)C2 [Example 1.52, 6-[8-(1,3-benzothiazol-2-ylcarbamoyl)-5-(3-sulfopropoxy)-3,4-dihydroisoquinolin-2 (1H)-yl]-3-[1-({3,5-dimethyl-7-[2-(methylamino)ethoxy]tricyclo[3.3.1.1^3,7]dec-1-yl}methyl)-5-methyl-1H-pyrazol-4-yl]pyridine-2-carboxylic acid]	0.0329 nM	< 0.001 nM	973 nM
Cc1c(-c2ccc(N3CCc4cccc(C(=O)Nc5nc6ccccc6s5)c4C3)nc2C(=O)O)cnn1CC12CC3(C)CC(C)(CC(CCCNCCS(=O)(=O)O)(C3)C1)C2 [Example 1.91, 6-{8-[(1,3-benzothiazol-2-yl)carbamoyl]-3,4-dihydroisoquinolin-2 (1H)-yl}-3-{1-[(3,5-dimethyl-7-{3-[(2-sulfoethyl)amino]propyl}tricyclo[3.3.1.1^3,7]decan-1-yl)methyl]-5-methyl-1H-pyrazol-4-yl}pyridine-2-carboxylic acid]	2.8 nM	0.064 nM	–
Cc1c(-c2ccc(-c3ccc4c(c3)N(C(=O)Nc3nc5ccccc5s3)CCC4)nc2C(=O)O)cnn1CC12CC3(C)CC(C)(C1)CC(OCCN(C)CCCN)(C3)C2 [Example 1.64, 3-{1-[(3-{2-[(3-aminopropyl)(methyl)amino]ethoxy}-5,7-dimethyltricyclo[3.3.1.1^3,7]dec-1-yl)methyl]-5-methyl-1H-pyrazol-4-yl)-6-[1-(1,3-benzothiazol-2-ylcarbamoyl)-1,2,3,4-tetrahydroquinolin-7-yl]pyridine-2-carboxylic acid]	< 0.01 nM	< 0.01 nM	5.25 nM
Cc1c(-c2ccc(-c3ccc4cccc(C(=O)Nc5nc6ccccc6s5)c4c3)nc2C(=O)O)cnn1CC12CC3(C)CC(C)(C1)CC(OCCNCCS(=O)(=O)O)(C3)C2 [Example 1.43, 6-[8-(1,3-benzothiazol-2-ylcarbamoyl)naphthalen-2-yl]-3-{1-[(3,5-dimethyl-7-{2-[(2-sulfoethyl)amino]ethoxy}tricyclo[3.3.1.1^3,7]dec-1-yl)methyl]-5-methyl-1H-pyrazol-4-yl}pyridine-2-carboxylic acid]	0.86 nM	< 0.001 nM	185 nM
Cc1c(-c2ccc(N3CCc4cccc(C(=O)Nc5nc6ccccc6s5)c4C3)nc2C(=O)O)cnn1CC12CC3(C)CC(C)(C1)CC(OCCOCCNCCCP(=O)(O)O)(C3)C2 [Example 1.16, 6-[8-(1,3-benzothiazol-2-ylcarbamoyl)-3,4-dihydroisoquinolin-2 (1H)-yl]-3-(1-{[3,5-dimethyl-7-(2-{2-[(3-phosphonopropyl)amino]ethoxy}ethoxy)tricyclo[3.3.1.1^3,7]dec-1-yl]methyl}-5-methyl-1H-pyrazol-4-yl}pyridine-2-carboxylic acid]	0.17 nM	< 0.001 nM	218 nM
Cc1c(-c2ccc(N3CCc4cccc(C(=O)Nc5nc6ccccc6s5)c4C3)nc2C(=O)O)cnn1CC12CC3(C)CC(C)(C1)CC(SCCNCCS(=O)(=O)O)(C3)C2 [Example 1.90, 6-[8-(1,3-benzothiazol-2-ylcarbamoyl)-3,4-dihydroisoquinolin-2 (1H)-yl]-3-(1-{[3,5-dimethyl-7-((2-[(2-sulfoethyl)amino]ethyl)sulfanyl)tricyclo[3.3.1.1^3,7]dec-1-yl]methyl)-5-methyl-1H-pyrazol-4-yl)pyridine-2-carboxylic acid]	4.2 nM	0.13 nM	–
Cc1c(-c2ccc(-c3ccc4c(c3)N(C(=O)Nc3nc5ccccc5s3)CCC4)nc2C(=O)O)cnn1CC12CC3(C)CC(C)(C1)CC(OCCN(C)C1CNC1)(C3)C2 [Example 1.65, 3-{1-[(3-{2-[azetidin-3-yl(methyl)amino]ethoxy}-5,7-dimethyltricyclo[3.3.1.1^3,7]dec-1-yl)methyl]-5-methyl-1H-pyrazol-4-yl}-6-[1-(1,3-benzothiazol-2-ylcarbamoyl)-1,2,3,4-tetrahydroquinolin-7-yl]pyridine-2-carboxylic acid]	0.099 nM	< 0.01 nM	–
Cc1c(-c2ccc(N3CCc4cccc(C(=O)Nc5nc6ccccc6s5)c4C3)nc2C(=O)O)cnn1CC12CC3(C)CC(C)(C1)CC(OCCNCCc1cn([C@@H]4O[C@H](C(=O)O)[C@@H](O)[C@H](O)[C@H]4O)nn1)(C3)C2 [Example 1.9, 8-(1,3-benzothiazol-2-ylcarbamoyl)-2-{6-carboxy-5-[1-({3-[2-({2-[1-(beta-D-glucopyranuronosyl)-1H-1,2,3-triazol-4-yl]ethyl}amino)ethoxy]-5,7-dimethyltricyclo[3.3.1.1^3,7]dec-1-yl}methyl)-5-methyl-1H-pyrazol-4-yl]pyridin-2-yl}-1,2,3,4-tetrahydroisoquinoline]	0.047 nM	< 0.001 nM	–
